From the NIST ThermoML archive (doi:10.1021/je1009976)

Assay: xn = mol fraction of the nth substance listed
Conditions: 101 kPa, Liquid; for viscosity: Capillary tube (Ostwald / Ubbelohde) method; for mass density: Pycnometric method

OCCOCCO [diethylene glycol] + O
Conditions	mass density, 303.15 K [kg/m3]	mass density, 308.15 K [kg/m3]	viscosity, 303.15 K [mPa·s]	viscosity, 308.15 K [mPa·s]	viscosity, 313.15 K [mPa·s]
x1 = 0.05006	1028.38	1026.09	1.556	1.37	1.222
x1 = 0.1016	1051.83	1048.94	2.582	2.242	1.962
x1 = 0.1512	1067.99	1065.34	3.83	3.286	2.833
x1 = 0.2012	1078.71	1075.25	5.261	4.448	3.806
x1 = 0.2477	1086.55	1082.95	6.653	5.591	4.739
x1 = 0.298	1092.27	1088.52	8.301	6.91	5.82
x1 = 0.3505	1096.22	1092.42	9.851	8.154	6.821
x1 = 0.4483	1101.17	1097.58	12.54	10.29	8.514
x1 = 0.5421	1103.74	1100.11	15.06	12.28	10.14
x1 = 0.6518	1106.25	1102.58	17.46	14.11	11.63
x1 = 0.7525	1107.78	1103.95	19.3	15.64	12.82
x1 = 0.7864	1107.94	1104.26	19.9	16.12	13.23
x1 = 0.8499	1108.55	1104.93	20.61	16.74	13.73
x1 = 0.9005	1108.84	1105.16	21.31	17.23	14.08
x1 = 0.9503	1109.66	1105.58	21.74	17.53	14.41
x1 = 1	1109.48	1105.72	22.16	17.93	14.71
